Reference: patent US20040121994A1, “Novel amides that activate soluble guanylate cyclase” (priority 2002, published 2004)

Target: T1, soluble guanylate cyclase (sGC), α1 and β1 subunits of guanylate cyclase expressed in Sf9 cells (Homo sapiens, UniProt Q02108+Q02153)
T1 construct: made in house; host or cells: Sf9 insect cells (baculovirus co-infection)
T1 sequence (Q02108 1-690): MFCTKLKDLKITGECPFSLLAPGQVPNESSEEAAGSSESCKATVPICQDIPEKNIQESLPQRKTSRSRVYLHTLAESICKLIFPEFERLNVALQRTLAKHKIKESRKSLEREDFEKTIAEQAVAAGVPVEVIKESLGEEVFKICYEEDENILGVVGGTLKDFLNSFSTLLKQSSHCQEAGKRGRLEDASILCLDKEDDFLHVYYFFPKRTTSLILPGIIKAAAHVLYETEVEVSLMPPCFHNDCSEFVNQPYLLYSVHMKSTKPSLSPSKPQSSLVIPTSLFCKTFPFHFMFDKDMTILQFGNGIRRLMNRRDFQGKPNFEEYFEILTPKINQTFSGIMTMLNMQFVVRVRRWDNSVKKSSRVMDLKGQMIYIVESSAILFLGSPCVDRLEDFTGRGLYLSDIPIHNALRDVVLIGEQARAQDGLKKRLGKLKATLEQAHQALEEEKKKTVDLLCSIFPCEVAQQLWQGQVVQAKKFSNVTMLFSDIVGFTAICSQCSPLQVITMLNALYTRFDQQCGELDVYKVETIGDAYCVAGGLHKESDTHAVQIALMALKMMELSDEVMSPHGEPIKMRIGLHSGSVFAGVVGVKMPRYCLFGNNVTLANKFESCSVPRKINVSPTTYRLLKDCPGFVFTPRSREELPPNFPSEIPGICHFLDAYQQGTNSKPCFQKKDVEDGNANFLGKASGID
T1 sequence (Q02153 1-619): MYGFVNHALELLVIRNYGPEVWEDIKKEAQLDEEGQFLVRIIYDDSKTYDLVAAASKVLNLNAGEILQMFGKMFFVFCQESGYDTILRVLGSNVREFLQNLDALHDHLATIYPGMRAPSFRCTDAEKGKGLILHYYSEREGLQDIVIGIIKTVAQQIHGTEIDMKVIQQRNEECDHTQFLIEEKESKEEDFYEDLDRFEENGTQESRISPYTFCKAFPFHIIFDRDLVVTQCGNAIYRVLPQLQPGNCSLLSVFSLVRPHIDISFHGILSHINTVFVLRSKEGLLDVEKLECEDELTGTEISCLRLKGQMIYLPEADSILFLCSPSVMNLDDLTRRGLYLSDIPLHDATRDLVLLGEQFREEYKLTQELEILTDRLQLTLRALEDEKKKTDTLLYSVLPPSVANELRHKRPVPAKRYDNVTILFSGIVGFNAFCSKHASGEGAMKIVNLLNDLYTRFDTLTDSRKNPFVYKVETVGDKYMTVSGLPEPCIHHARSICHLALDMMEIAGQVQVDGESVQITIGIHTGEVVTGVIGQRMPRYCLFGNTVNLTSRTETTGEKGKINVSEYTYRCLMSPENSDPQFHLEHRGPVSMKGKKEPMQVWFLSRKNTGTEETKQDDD
Assay: Guanylate cyclase assay (formation of cyclic GMP from GTP)
Type: biochemical
Settings: for Mean activation at 100 μM: (activity of compound at 100 μM with 1 μM SNP)−(activity of compound at 100 μM)/(activity of SNP at 1 μM)−(basal activity of sGC); for Mean efficacy of compound combined with 1 μM of SNP, [%]: compound at 100 μM with 1 μM sodium nitro prusside (SNP); for Emax at 100 µM: read-out: Mean basal efficacy of compound alone at 100 μM, [%]
Protocol: Sf9 cells were cultured in Sf-90011 medium supplemented with 10% (v/v) fetal calf serum at 28° C. to give a count of 6×10^5 cells/ml. The cells were then infected with a mixture of the virus stocks for the α1 and β1 subunits of guanylate cyclase at a multiplicity of infection of 0.1 pfu/cell. The cells were harvested 72 hours after infection and were pelleted by centrifugation. The resulting cell pellets were homogenized with Polytron homogenizer in 3 volumes of 20 mM Tris-HCl (pH 7.6) containing 1 mM EDTA, 5 mM dithiothreitol, 90 mM NaCl, 10% glycerol, and protease inhibitors mix (Roche Molecular Biochemicals). The homogenate was centrifuged at 50,000×g for 60 minutes and the supernatant was aliquotted and stored at −80° C.
Compounds of the present invention were dissolved in DMSO to make 100 mM and saved as stocks at −20° C. When compounds were tested, prepared 10-fold concentrated solutions with 10% DMSO. Then added 10 μl of 10-fold concentrated compound solutions to the reaction mixture of total 100 μl.
Guanylate cyclase activity was measured by the formation of cyclic GMP from GTP in a total volume of 100 μl. Guanylate cyclase-expressed Sf9 cell high-speed supernatant was used as an enzyme source for the assay. The reaction mixture containing 0.1 μl enzyme (Sf9 high-speed sup), compound solution, 50 mM Tris-HCl (pH 7.6), 4 mM MgCl2, 0.5 mM IBMX, 15 mM creatine phosphate, 20 μg creatine phosphokinase, 0.1% BSA and 1 mM GTP was incubated at 37° C. for 15 minutes. After the reaction, 0.9 ml of 50 mM sodium acetate buffer (pH 5.8) was added followed by boiling for 3 minutes to stop the reaction. The solution was centrifuged at 3000 rpm for 15 minutes at room temperature and cyclic GMP in 20 μl of the resulting supernatant was measured according to the protocol of Amersham cyclic GMP enzymeimmunoassay system (purchased from Sigma, catalogue number RPN 226).
Compounds of the present invention were tested at 100 μM with and without 1 μM sodium nitro prusside (SNP). 1-Benzyl-3-hydroxymethyl-2-furylindazole (YC-1) was included as a standard for each assay. The data was normalized with the activity of 100 μM YC-1 (without SNP) as 100%. Mean basal efficacy, in Table 1, was expressed as a percentage of 100 μM YC-1 (without SNP).
The mean activation, in Table 1, was calculated based on the formula: (activity of compound of the present invention at 100 μM with 1 μM SNP)−(activity of compound of the present invention at 100 μM)/(activity of SNP at 1 μM)−(basal activity of sGC).

[1] = normalized with the activity of 100 μM YC-1 (without SNP) as 100%
[2] = compound at 100 μM without SNP, normalized with the activity of 100 μM YC-1 (without SNP) as 100%

Compound: 2-[1-((2E)-3-{2-[(3-methylbutyl)thio]phenyl}-2-propenoyl)-4-piperidinyl]ethanol [Example 62]
- Mean activation at 100 μM: 4.7
- Mean efficacy of compound combined with 1 μM of SNP, [%] [1]: 161%
- Mean basal efficacy of compound alone at 100 μM, [%] [2]: 136%

Compound: O=C(/C=C/c1ccccc1Sc1ccccc1)NC1CCCCC1O (centres unmarked) [Example 46, (2E)-N-(2-hydroxycyclohexyl)-3-[2-(phenylthio)phenyl]acrylamide]
- Mean activation at 100 μM: 4.3
- Mean efficacy of compound combined with 1 μM of SNP, [%] [1]: 121%
- Emax at 100 µM [2]: 54%

Compound: CCNC(=O)/C=C/c1ccccc1Sc1ccc(Cl)cc1 [Example 32, (2E)-3-{2-[(4-chlorophenyl)thio]phenyl}-N-ethylacrylamide]
- Mean activation at 100 μM: 10.5
- Mean efficacy of compound combined with 1 μM of SNP, [%] [1]: 78%
- Emax at 100 µM [2]: 27%

Compound: CC(CCCC(C)(C)O)NC(=O)/C=C/c1ccccc1Sc1ccc(Cl)cc1 (centres unmarked) [Example 31, (2E)-3-{2-[(4-chlorophenyl)thio]phenyl}-N-(5-hydroxy-1,5-dimethylhexyl)acrylamide]
- Mean activation at 100 μM: 3.7
- Mean efficacy of compound combined with 1 μM of SNP, [%] [1]: 187%
- Emax at 100 µM [2]: 93%

Compound: Cc1ccc(Sc2ccccc2/C=C/C(=O)NC2CCCCC2O)cc1 (centres unmarked) [Example 47, (2E)-N-(2-hydroxycyclohexyl)-3-{2-[(4-methylphenyl)thio]phenyl}acrylamide]
- Mean activation at 100 μM: 2.8
- Mean efficacy of compound combined with 1 μM of SNP, [%] [1]: 44%
- Emax at 100 µM [2]: 16%

Compound: CC(C)CCSc1ccccc1/C=C/C(=O)N1CCCC(O)C1 (centres unmarked) [Example 61, 1-((2E)-3-{2-[(3-methylbutyl)thio]phenyl}-2-propenoyl)-3-piperidinol]
- Mean activation at 100 μM: 10.2
- Mean efficacy of compound combined with 1 μM of SNP, [%] [1]: 165%
- Emax at 100 µM [2]: 103%

Compound: CC(C)CCSc1ccccc1/C=C/C(=O)N1CCC(O)CC1 [Example 60, 1-((2E)-3-{2-[(3-methylbutyl)thio]phenyl}-2-propenoyl)-4-piperidinol]
- Mean activation at 100 μM: 8.3
- Mean efficacy of compound combined with 1 μM of SNP, [%] [1]: 165%
- Emax at 100 µM [2]: 115%

Compound: CC(C)Sc1ccccc1/C=C/C(=O)NC1CCC(O)CC1 (centres unmarked) [Example 24, (2E)-N-(4-hydroxycyclohexyl)-3-[2-(isopropylthio)phenyl]acrylamide]
- Mean activation at 100 μM: 1.6
- Mean efficacy of compound combined with 1 μM of SNP, [%] [1]: 17%
- Emax at 100 µM [2]: 4%

Compound: CCC(O)CNC(=O)/C=C/c1ccccc1Sc1ccc(Cl)cc1 (centres unmarked) [Example 39, (2E)-3-{2-[(4-chlorophenyl)thio]phenyl}-N-(2-hydroxybutyl)acrylamide]
- Mean activation at 100 μM: 19.3
- Mean efficacy of compound combined with 1 μM of SNP, [%] [1]: 305%
- Emax at 100 µM [2]: 73%

Compound: CC(C)CCSc1ccccc1/C=C/C(=O)NC1CCCCC1O (centres unmarked) [Example 56, (2E)-N-(2-hydroxycyclohexyl)-3-{2-[(3-methylbutyl)thio]phenyl}acrylamide]
- Mean activation at 100 μM: 8.3
- Mean efficacy of compound combined with 1 μM of SNP, [%] [1]: 276%
- Emax at 100 µM [2]: 169%

Compound: O=C(/C=C/c1cccnc1Sc1ccccc1)NC1CCC(O)CC1 (centres unmarked) [Example 19, (2E)-N-(4-hydroxycyclohexyl)-3-[2-(phenylthio)-3-pyridinyl]acrylamide]
- Mean activation at 100 μM: 4.8
- Mean efficacy of compound combined with 1 μM of SNP, [%] [1]: 120%
- Emax at 100 µM [2]: 37%

Compound: CC(CC(=O)N(C)C1CCN(C)CC1)c1ccccc1Sc1ccc(Cl)cc1 (centres unmarked) [Example 10, 3-{2-[(4-chlorophenyl)thio]phenyl}-N-methyl-N-(1-methyl-4-piperidinyl)butanamide]
- Mean activation at 100 μM: 1.6
- Mean efficacy of compound combined with 1 μM of SNP, [%] [1]: 7%
- Emax at 100 µM [2]: 0%

Compound: O=C(/C=C/c1ccccc1Sc1ccc(Cl)cc1)NCCCCCO [Example 35, (2E)-3-{2-[(4-chlorophenyl)thio]phenyl}-N-(5-hydroxypentyl)acrylamide]
- Mean activation at 100 μM: 6.3
- Mean efficacy of compound combined with 1 μM of SNP, [%] [1]: 228%
- Emax at 100 µM [2]: 49%

Compound: CONCCCCNC(=O)CCc1ccccc1Sc1ccc(Cl)cc1 [Example 12, 3-{2-[(4-chlorophenyl)thio]phenyl}-N-[4-(methoxyamino)butyl]propanamide]
- Mean activation at 100 μM: 1.5
- Mean efficacy of compound combined with 1 μM of SNP, [%] [1]: 20%
- Emax at 100 µM [2]: 2%

Compound: CC(C)CSc1ccccc1/C=C/C(=O)NC1CCCCC1O (centres unmarked) [Example 21, (2E)-N-(2-hydroxycyclohexyl)-3-[2-(isobutylthio)phenyl]acrylamide]
- Mean activation at 100 μM: 4.1
- Mean efficacy of compound combined with 1 μM of SNP, [%] [1]: 106%
- Emax at 100 µM [2]: 45%

Compound: O=C(/C=C/c1cccnc1Sc1ccc(Cl)cc1Cl)NC1CCC(O)CC1 (centres unmarked) [Example 17, (2E)-3-{2-[(2,4-dichlorophenyl)thio]-3-pyridinyl}-N-(4-hydroxycyclohexyl)acrylamide]
- Mean efficacy of compound combined with 1 μM of SNP, [%] [1]: 138%
- Emax at 100 µM [2]: 38%

Compound: Cc1ccc(Sc2ccccc2/C=C/C(=O)NCCCCO)cc1 [Example 36, (2E)-N-(4-hydroxybutyl)-3-{2-[(4-methylphenyl)thio]phenyl}acrylamide]
- Mean activation at 100 μM: 9.2
- Mean efficacy of compound combined with 1 μM of SNP, [%] [1]: 212%
- Emax at 100 µM [2]: 66%

Compound: O=C(CCc1cccc(F)c1Sc1ccc(Cl)cc1)NCCCCO [Example 7, 3-{2-[(4-chlorophenyl)thio]-3-fluorophenyl}-N-(4-hydroxybutyl)propanamide]
- Mean activation at 100 μM: 3.8
- Mean efficacy of compound combined with 1 μM of SNP, [%] [1]: 80%
- Emax at 100 µM [2]: 19%

Compound: CC(C)CCSc1ccccc1/C=C/C(=O)N1CCC(C(N)=O)CC1 [Example 63, 1-((2E)-3-{2-[(3-methylbutyl)thio]phenyl}-2-propenoyl)-4-piperidinecarboxamide]
- Mean activation at 100 μM: 6.8
- Mean efficacy of compound combined with 1 μM of SNP, [%] [1]: 164%
- Emax at 100 µM [2]: 125%

Compound: O=C(CCc1ccccc1Sc1ccc(Cl)cc1)NC1CCC(O)CC1 (centres unmarked) [Example 4, 3-{2-[(4-chlorophenyl)thio]phenyl}-N-(4-hydroxycyclohexyl)propanamide]
- Mean activation at 100 μM: 2.6
- Mean efficacy of compound combined with 1 μM of SNP, [%] [1]: 28%
- Emax at 100 µM [2]: 1%
